Patent US8173813B2, “Quinolone and tetrahydroquinolone and related compounds having NOS inhibitory activity” (NeurAxon, Inc., priority 2007, dated 2012)
“And” between values parts separate entries of the source, which are not always exact repeats. Equal entries are not always repeated. Where two headings read alike, the source gives them in different places.

What was measured:
[1] = biological target: eNOS (Rat) (Rattus norvegicus, UniProt Q62600); assay: eNOS (Rat) enzyme assay; type: biochemical; settings: values in parentheses; for IC50: read-out: eNOS IC50 (rodent data in parentheses)
[2] = biological target: Recombinant human inducible NOS (iNOS) (Homo sapiens, UniProt P35228); assay: Human iNOS enzyme assay, radiometric; type: biochemical; settings: read-out: hiNOS IC50
[3] = biological target: Nitric oxide synthase (neuronal, human recombinant) nNOS (Homo sapiens, UniProt P29475); assay: Human nNOS enzyme assay ([3H]L-arginine to [3H]L-citrulline); type: biochemical; settings: for IC50: read-out: hnNOS IC50; for Selectivity eNOS/nNOS: human enzymes, ratio of eNOS IC50 to nNOS IC50
[4] = biological target: iNOS (Mouse) (Mus musculus, UniProt P29477); assay: iNOS (Mouse) enzyme assay; type: biochemical; settings: values in parentheses, read-out: iNOS IC50 (rodent data in parentheses)
Experimental: (§1) nNOS (Rat), eNOS (Rat) and iNOS (Mouse) Enzyme Assay Recombinant rat or mouse NO synthases (iNOS, eNOS, nNOS) were expressed in Sf9 cells (Sigma), 36 mg prot/ml (Bradford). […] Inhibition of NOS was determined by measuring the formation of L-[3H] citrulline from L-[3H] arginine. […] Stop buffer:100 mM Hepes, pH 5.5, 3 mM EDTA, 3 mM EGTA. Enzyme and inhibitor were pre-incubated for 35 min in the presence of NADPH before addition of arginine to initiate the reaction.

[5] = system: Rats with L5/L6 spinal nerve ligation; assay: Chung Spinal Nerve Ligation model, thermal hyperalgesia; type: in vivo, rat; settings: standard dosings 3, 10, and 30 mg/kg injected IP
[6] = biological target: nNOS (Rat) (Rattus norvegicus, UniProt P29476); assay: nNOS (Rat) enzyme assay; type: biochemical; settings: for IC50: read-out: nNOS IC50 (rodent data in parentheses)
Experimental: as §1, with “EGTA.” for “EGTA. Enzyme and inhibitor were pre-incubated for 35 min in the presence of NADPH before addition of arginine to initiate the reaction.”

[7] = system: sciatic nerve cuff-implanted rats; assay: Sciatic Nerve Cuff model, hind leg weight bearing; type: in vivo, rat
Experimental: (§2) The method of inducing peripheral neuropathy is by implantation of a single cuff around the sciatic nerve, modified from the method described by Mosconi and Kruger (1996), where two to four cuffs were used. Rats are anaesthetized with a combination of ketamine (5 mg/100 g) and xylazine (0.5 mg/100 g), i.p. The left sciatic nerve is exposed after blunt dissection of overlying muscle and freed from surrounding tissue. A cuff made of a 2 mm segment of polyethylene (PE-90) tubing (Intramedic PE-90, Clay Adams, Division of Becton Dickinson, Parsippany, N.J.) slit longitudinally is fit around the nerve. Subsequently the muscle is sutured, and skin closed using suture clips. Antibiotic ointment (Nitrofurazone 0.2%) is applied over the wound, and 0.03 ml of the antibiotic Tribrissen 24% (trimethoprim-sulfadiazine) is injected subcutaneously. Animals are placed under a heating lamp until they recovered from the anaesthetic and then returned to their home cage.

[8] = biological target: Nitric oxide synthase (endothelial, human recombinant) eNOS (Homo sapiens, UniProt P29474); assay: Human eNOS enzyme assay ([3H]L-arginine to [3H]L-citrulline); type: biochemical; settings: read-out: heNOS IC50
[9] = system: sciatic nerve cuff-implanted rats; assay: Sciatic Nerve Cuff model, cold plate test (paw lifts); type: in vivo, rat; settings: daily i.p. 30 mg/kg; cold plate 4±2° C.; 10-minute test period; average
From the text: The animal will be placed into a box of approximately 12×12×12 inches. The bottom is filled with an ice-saline mixture and a metal plate is placed just on top of this mixture. […]
[…] Post-testing treatment—the feet will be wiped with a soft cloth or paper towel and the animal will be placed back in its home cage for five minutes. An allowance will be made for the time necessary to transfer to as well as adaptation to the next testing apparatus.
as §2, with “Animals are placed under a heating lamp until they recovered from the anaesthetic and then returned to their home cage.” left out

[10] = system: sciatic nerve cuff-implanted rats; assay: Sciatic Nerve Cuff model, mechanical allodynia (von Frey hair); type: in vivo, rat; settings: i.p 30 mg/kg
Experimental: The Sciatic Nerve Cuff model in rats (Mosconi and Kruger, 1996, Pain 64, 37-57) involves implantation of a plastic cuff around the sciatic nerve that results in painful neuropathy several days after surgery and induction of nociceptive afterdischarge in spinal neurons after innocuous peripheral mechanical stimulation (G. M. Pitcher and J. L. Henry). Mechanical allodynia is measured in the ipsilateral paw using calibrated von Frey hair testing. A single acute application of the drug (i.p. dosing) reverses the post-cuff pain thresholds to mechanical stimulus towards normal threshold levels.
The study utilized a cuff model (Mosconi T, Kruger L. Fixed-diameter polyethylene cuffs applied to the rat sciatic nerve induce a painful neuropathy: ultrastructural morphometric analysis of axonal alterations. Pain 64: 37-57, 1996) to examine the therapeutic effectiveness of the test compound 11 on a battery of behavioural endpoints in rats.
The testing chamber consists of a 30×30×30 cm Plexiglas box with a clear Plexiglas floor. This floor contained 0.5 cm diameter holes that are spaced 1.5 cm apart, and is positioned over a mirror, which allows an unobstructed view of the rat paws. Animals are placed in the testing chamber and allowed to acclimatize for 30 min prior to testing. von Frey filaments (Stoelting Co., Illinois, USA) are applied to the soft tissue of the plantar surface of the hind paw to determine the withdrawal threshold. The first filament applied corresponds to a force of 4.31 grams. […] A 50% response threshold is calculated according to the response pattern observed (described by Chaplan et al. 1994). […]
A baseline reading with von Frey hairs is taken before model induction. Thus rats are acclimatized to the testing chamber and readings are taken for at least three days for the baseline before any surgery. After the surgery von Frey hair testing for any development of mechanical sensitivity is assessed. […]

[11] = system: Male, Sprague Dawley rats; assay: Porreca model of allodynia (inflammatory soup onto the dura, hindpaw von Frey); type: in vivo, rat
[12] = human recombinant iNOS, values without parentheses
[13] = human recombinant eNOS, values without parentheses
[14] = human recombinant nNOS, values without parentheses
[15] = rat nNOS, values in parentheses

Sequence of Nitric oxide synthase (endothelial, human recombinant) eNOS (P29474 2-1203): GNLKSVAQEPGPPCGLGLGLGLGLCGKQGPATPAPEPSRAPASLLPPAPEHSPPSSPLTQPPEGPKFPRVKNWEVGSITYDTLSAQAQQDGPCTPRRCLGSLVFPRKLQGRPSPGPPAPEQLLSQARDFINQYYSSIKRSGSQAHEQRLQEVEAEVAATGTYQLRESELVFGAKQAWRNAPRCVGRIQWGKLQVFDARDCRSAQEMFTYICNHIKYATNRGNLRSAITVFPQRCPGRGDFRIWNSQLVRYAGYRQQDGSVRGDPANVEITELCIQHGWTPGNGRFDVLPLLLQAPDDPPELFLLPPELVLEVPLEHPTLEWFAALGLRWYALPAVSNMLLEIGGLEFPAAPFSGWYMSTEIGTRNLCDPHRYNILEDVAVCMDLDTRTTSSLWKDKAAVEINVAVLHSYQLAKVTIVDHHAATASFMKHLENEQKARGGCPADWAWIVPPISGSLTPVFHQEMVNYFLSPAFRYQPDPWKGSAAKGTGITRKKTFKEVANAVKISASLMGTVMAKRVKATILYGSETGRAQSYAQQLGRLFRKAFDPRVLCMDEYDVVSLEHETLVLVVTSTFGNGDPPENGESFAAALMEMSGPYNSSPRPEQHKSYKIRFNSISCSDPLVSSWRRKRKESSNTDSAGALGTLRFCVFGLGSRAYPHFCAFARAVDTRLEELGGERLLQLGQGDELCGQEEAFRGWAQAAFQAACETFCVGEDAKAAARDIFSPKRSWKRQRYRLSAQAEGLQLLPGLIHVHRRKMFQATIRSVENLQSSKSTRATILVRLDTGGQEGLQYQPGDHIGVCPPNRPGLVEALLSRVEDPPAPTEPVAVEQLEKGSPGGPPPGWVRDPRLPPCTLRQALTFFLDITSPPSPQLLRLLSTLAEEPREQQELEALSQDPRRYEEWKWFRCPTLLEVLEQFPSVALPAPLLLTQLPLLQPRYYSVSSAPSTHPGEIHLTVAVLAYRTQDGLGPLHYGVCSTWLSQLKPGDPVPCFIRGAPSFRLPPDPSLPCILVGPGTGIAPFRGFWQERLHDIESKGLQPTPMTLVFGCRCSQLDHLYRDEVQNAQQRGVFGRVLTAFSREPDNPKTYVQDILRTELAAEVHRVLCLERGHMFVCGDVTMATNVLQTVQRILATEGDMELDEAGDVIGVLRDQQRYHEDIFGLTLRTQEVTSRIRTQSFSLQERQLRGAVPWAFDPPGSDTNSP
Sequence of eNOS (Rat) (Q62600 2-1202): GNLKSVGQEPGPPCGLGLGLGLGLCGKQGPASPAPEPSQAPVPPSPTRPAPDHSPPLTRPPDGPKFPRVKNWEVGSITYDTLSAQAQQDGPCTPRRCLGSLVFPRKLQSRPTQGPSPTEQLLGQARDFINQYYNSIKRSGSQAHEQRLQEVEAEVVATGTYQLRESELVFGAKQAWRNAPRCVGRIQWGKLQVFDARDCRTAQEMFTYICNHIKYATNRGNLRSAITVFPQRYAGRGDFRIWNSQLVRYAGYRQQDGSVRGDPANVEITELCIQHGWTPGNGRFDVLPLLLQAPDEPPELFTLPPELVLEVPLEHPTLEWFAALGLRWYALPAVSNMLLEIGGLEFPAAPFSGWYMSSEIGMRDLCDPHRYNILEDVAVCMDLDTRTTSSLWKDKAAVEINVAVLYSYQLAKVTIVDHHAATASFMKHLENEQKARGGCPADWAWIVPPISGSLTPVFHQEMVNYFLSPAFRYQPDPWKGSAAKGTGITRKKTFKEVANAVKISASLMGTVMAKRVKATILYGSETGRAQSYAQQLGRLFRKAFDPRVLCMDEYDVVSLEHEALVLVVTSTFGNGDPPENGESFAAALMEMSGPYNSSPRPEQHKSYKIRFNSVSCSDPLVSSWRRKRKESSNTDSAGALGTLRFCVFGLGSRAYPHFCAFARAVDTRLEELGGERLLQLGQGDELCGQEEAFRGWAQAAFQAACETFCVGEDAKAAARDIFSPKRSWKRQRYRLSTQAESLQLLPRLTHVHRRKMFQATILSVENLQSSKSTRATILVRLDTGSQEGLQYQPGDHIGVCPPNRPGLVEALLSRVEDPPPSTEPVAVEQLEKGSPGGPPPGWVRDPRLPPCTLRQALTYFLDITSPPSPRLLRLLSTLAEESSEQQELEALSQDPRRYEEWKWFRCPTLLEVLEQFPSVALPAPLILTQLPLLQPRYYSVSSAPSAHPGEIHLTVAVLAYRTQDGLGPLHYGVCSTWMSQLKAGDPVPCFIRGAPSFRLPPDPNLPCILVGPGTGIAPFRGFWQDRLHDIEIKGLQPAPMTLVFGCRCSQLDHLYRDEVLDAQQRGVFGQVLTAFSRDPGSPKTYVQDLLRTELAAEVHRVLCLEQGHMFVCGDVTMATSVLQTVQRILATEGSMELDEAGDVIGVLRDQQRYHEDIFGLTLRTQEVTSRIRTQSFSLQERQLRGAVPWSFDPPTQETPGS
Sequence of Nitric oxide synthase (neuronal, human recombinant) nNOS (P29475 whole entry): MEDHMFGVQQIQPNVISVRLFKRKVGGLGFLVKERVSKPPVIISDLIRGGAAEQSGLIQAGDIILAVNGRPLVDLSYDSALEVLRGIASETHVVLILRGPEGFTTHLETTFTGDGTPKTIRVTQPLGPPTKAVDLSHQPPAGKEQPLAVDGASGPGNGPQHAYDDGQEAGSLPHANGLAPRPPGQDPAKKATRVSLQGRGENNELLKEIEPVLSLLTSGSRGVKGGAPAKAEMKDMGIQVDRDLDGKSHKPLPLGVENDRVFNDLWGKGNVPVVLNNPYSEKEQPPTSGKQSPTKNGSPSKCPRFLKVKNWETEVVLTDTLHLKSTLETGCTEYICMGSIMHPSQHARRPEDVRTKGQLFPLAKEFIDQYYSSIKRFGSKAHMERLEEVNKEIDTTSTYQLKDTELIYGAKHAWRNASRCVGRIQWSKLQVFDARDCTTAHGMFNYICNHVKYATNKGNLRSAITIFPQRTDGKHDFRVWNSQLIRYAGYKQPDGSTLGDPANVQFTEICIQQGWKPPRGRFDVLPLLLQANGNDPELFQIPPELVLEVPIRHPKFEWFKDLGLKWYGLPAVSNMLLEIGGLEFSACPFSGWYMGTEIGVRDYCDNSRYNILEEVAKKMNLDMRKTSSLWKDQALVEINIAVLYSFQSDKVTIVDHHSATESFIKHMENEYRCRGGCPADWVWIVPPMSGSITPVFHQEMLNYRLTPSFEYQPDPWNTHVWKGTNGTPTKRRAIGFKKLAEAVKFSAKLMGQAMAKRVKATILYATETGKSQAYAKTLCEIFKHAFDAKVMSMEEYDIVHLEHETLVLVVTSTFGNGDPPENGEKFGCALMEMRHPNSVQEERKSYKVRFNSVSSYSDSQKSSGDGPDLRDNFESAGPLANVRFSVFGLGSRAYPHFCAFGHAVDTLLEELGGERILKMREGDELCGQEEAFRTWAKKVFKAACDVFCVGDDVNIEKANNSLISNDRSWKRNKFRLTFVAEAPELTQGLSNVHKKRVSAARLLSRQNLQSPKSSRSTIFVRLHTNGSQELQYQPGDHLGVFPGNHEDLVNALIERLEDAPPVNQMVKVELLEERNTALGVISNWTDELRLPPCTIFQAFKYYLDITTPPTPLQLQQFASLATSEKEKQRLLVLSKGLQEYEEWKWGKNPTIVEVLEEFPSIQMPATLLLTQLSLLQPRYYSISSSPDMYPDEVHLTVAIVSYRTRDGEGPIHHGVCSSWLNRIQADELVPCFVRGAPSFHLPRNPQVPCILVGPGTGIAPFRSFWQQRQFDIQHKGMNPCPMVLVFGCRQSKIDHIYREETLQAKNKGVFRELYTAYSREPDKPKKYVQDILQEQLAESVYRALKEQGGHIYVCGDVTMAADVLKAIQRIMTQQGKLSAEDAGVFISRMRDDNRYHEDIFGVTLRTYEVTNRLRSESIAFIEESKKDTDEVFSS
Sequence of Recombinant human inducible NOS (iNOS) (P35228 whole entry): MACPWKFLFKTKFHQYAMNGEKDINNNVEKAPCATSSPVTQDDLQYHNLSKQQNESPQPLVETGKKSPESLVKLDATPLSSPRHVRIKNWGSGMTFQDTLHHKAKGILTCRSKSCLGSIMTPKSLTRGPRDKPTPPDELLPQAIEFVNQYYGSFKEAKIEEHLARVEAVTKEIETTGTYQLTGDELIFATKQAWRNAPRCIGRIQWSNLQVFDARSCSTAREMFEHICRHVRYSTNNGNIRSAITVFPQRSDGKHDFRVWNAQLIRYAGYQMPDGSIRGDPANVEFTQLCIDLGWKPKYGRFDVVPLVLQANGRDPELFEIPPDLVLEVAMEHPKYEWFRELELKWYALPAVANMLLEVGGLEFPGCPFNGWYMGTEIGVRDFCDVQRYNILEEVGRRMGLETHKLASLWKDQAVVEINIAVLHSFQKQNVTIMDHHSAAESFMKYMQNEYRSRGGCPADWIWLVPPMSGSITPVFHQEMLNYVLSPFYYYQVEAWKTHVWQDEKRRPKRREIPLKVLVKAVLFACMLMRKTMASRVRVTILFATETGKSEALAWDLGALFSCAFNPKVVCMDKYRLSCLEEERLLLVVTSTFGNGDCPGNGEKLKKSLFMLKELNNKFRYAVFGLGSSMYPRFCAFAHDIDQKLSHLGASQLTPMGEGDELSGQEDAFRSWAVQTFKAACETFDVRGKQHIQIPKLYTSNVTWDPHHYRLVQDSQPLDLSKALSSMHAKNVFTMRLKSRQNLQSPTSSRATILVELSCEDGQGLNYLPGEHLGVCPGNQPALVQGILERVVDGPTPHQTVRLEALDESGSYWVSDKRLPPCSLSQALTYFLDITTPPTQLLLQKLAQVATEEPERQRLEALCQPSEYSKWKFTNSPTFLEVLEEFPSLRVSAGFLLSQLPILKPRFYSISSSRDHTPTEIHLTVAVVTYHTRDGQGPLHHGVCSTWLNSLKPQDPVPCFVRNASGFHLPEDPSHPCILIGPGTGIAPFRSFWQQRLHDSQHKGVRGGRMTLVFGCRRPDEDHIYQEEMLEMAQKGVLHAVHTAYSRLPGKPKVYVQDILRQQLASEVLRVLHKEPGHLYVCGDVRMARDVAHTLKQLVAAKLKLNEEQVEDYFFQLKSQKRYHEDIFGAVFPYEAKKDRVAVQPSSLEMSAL

SMILES | IC50 [1] [µM] | IC50 [4] [µM] | antihyperalgesic effect in the Chung model [5] | IC50 [2, 12] [µM] | IC50 [8, 13] | IC50 [3, 14] | IC50 [6, 15] [µM] | Selectivity eNOS/nNOS [3] | also measured
CN(C)CCN1C(=O)CCc2cc(NC(=N)c3cccs3)ccc21 [Example 3, N-(1-(2-(dimethylamino)ethyl)-2-oxo-1,2,3,4-tetrahydroquinolin-6-yl)thiophene-2-carboximidamide] | 65 | > 100 | no antihyperalgesic effect | – | – | – | – | – | IC50 [2]: 32 µM; IC50 [3]: 0.58 µM; IC50 [6]: 0.21 µM
CN(C)CCN1CCCc2cc(NC(=N)c3cccs3)ccc21 [Example 11, N-(1-(2-(dimethylamino)ethyl)-1,2,3,4-tetrahydroquinolin-6-yl)thiophene-2-carboximidamide] | > 100 | > 100 | clear antihyperalgesic effect | 0.85 | 37.7 µM | 0.253 µM | 0.46 | – | hind paw weight placement 24 hours after the first dose ([7]; 24 hours after the first dose): preferential placement on the contralateral hind paw; hind paw weight placement on successive days ([7]; drug administration on successive days): shift in hind paw weight placement toward even distribution on each day; hind paw weight placement, first day ([7]; first day, two hours and four hours after drug administration): shift in weight placement toward even distribution between the two hind paws; IC50 [8]: 58.7 µM; IC50 [3]: 0.43 µM; paw lifts in the cold plate test [9]: approximately nine; tactile hypersensitivity, pre-injection reading on the second drug-administration day ([10]; latent effect of the first dose): sustained reversal of the tactile hypersensitivity; tactile sensitivity on successive days of administration ([10]; successive days): no further overt effect; tactile hypersensitivity (von Frey) after first injection ([10]; two and four hours after the first injection): reversed the tactile hypersensitivity
CN(C)CCN1CCCCc2cc(NC(=N)c3cccs3)ccc21.Cl.Cl [Example 28, N-(1-(2-(Dimethylamino)ethyl)-2,3,4,5-tetrahydro-1H-benzo[b]azepin-7-yl)thiophene-2-carboximidamide dihydrochloride] | 62.7 | > 100 | clear antihyperalgesic effect | 35.7 | – | 0.44 µM | 0.12 | – | IC50 [8]: 99.1 µM; hindpaw allodynia after inflammatory soup (IS) ([11]; 30 mg/kg p.o. 15 minutes prior to IS): reverses the development of hindpaw allodynia
CNCCN1CCCc2cc(NC(=N)c3cccs3)ccc21.Cl.Cl [Example 30, N-(1-(2-(Methylamino)ethyl)-1,2,3,4-tetrahydroquinolin-6-yl)thiophene-2-carboximidamide dihydrochloride] | – | > 100 | – | > 100 | 24.7 µM and 29 µM | 0.57 µM and 0.38 µM and 0.18 µM | 0.192 | – | eNOS IC50 (rodent data in parentheses) [1]: (inactive); IC50 [8]: 40.7 µM
CN1CCC(C2C(=O)Nc3ccc(NC(=N)c4cccs4)cc32)CC1 (stereo not shown) [Example 31, N-(3-(1-Methylpiperidin-4-yl)-2-oxoindolin-5-yl)thiophene-2-carboximidamide] | > 100 | > 100 | – | 5.52 | 22.9 µM | 0.6 µM | 0.99 | 38.3 | –
CN(C)CCN1CCCc2ccc(NC(=N)c3cccs3)cc21 [Example 32, N-(1-(2-(Dimethylamino)ethyl)-1,2,3,4-tetrahydroquinolin-7-yl)thiophene-2-carboximidamide] | > 100 | > 100 | – | 0.26 | 37.7 µM | 0.45 µM | 0.94 | 83.2 | –
CN1CCC(N2CCc3cc(NC(=N)c4cccs4)ccc32)CC1 [Example 37, N-(1-(1-Methylpiperidin-4-yl)indolin-5-yl)thiophene-2-carboximidamide] | – | – | clear antihyperalgesic effect | 4.35 | 50.3 µM | 1.22 µM | – | 41.2 | –
CNCCN1CCCc2ccc(NC(=N)c3cccs3)cc21 [Example 44, N-(1-(2-(Methylamino)ethyl)-1,2,3,4-tetrahydroquinolin-7-yl)thiophene-2-carboximidamide] | 0.63 | 4.3 | – | > 100 | 22.4 µM | 0.12 µM | 0.48 | 187 | –
N=C(Nc1ccc2c(c1)CCCN2C1CCNCC1)c1cccs1 [Example 47] | > 100 | 0.34 | clear antihyperalgesic effect | 6.57 | 156 µM | 0.6 µM | 3.8 | 260 | –
Cl.Cl.N=C(Nc1ccc2c(c1)CCN2C1CCNCC1)c1cccs1 [Example 54, N-(1-(Piperidin-4-yl)indolin-5-yl)thiophene-2-carboximidamide dihydrochloride] | 12 | 7.53 | clear antihyperalgesic effect | – | 46 µM | 0.27 µM | 2.6 | 170 | IC50 [2]: > 100 µM
CC(C)NCCN1CCCc2cc(NC(=N)c3cccs3)ccc21 [Example 61, N-(1-(2-(Isopropylamino)ethyl)-1,2,3,4-tetrahydroquinolin-6-yl)thiophene-2-carboximidamide] | 6.2 | 8 | – | – | 30.2 µM | 0.26 µM | 1.1 | 116 | IC50 [2]: 2.9 µM; Selectivity eNOS/nNOS (rodent data in parentheses) ([6]; rodent enzymes, values in parentheses): (5.6)
CNS(=O)(=O)Cc1ccc2[nH]cc(CCN(C)C)c2c1 [Sumatriptan succinate, reference compound] | – | – | – | – | – | – | – | – | hindpaw allodynia after inflammatory soup (IS) ([11]; 1 mg/kg s.c. 5 minutes prior to the soup, measured two hours after IS): prevention of the development of hindpaw allodynia
